Assay: xn = mol fraction of the nth substance listed

CN1CCCC1=O + O
Conditions	viscosity [mPa·s]
308.15 K, 101 kPa, x1 = 0.0505	1.375
308.15 K, 101 kPa, x1 = 0.1202	2.303
308.15 K, 101 kPa, x1 = 0.1702	2.895
308.15 K, 101 kPa, x1 = 0.1999	3.179
308.15 K, 101 kPa, x1 = 0.2205	3.323
308.15 K, 101 kPa, x1 = 0.2496	3.478
308.15 K, 101 kPa, x1 = 0.2697	3.539
308.15 K, 101 kPa, x1 = 0.2937	3.574
308.15 K, 101 kPa, x1 = 0.3202	3.591
308.15 K, 101 kPa, x1 = 0.3496	3.518
308.15 K, 101 kPa, x1 = 0.3999	3.351
308.15 K, 101 kPa, x1 = 0.45	3.147
308.15 K, 101 kPa, x1 = 0.4999	2.912
308.15 K, 101 kPa, x1 = 0.6002	2.487
308.15 K, 101 kPa, x1 = 0.7	2.138
308.15 K, 101 kPa, x1 = 0.7997	1.883
308.15 K, 101 kPa, x1 = 0.8962	1.691
313.15 K, 101.15 kPa, x1 = 0.0501	1.178
313.15 K, 101.15 kPa, x1 = 0.0701	1.402
313.15 K, 101.15 kPa, x1 = 0.1001	1.744
313.15 K, 101.15 kPa, x1 = 0.2004	2.684
313.15 K, 101.15 kPa, x1 = 0.3004	2.975
313.15 K, 101.15 kPa, x1 = 0.4012	2.777
313.15 K, 101.15 kPa, x1 = 0.503	2.44
313.15 K, 101.15 kPa, x1 = 0.5937	2.125
313.15 K, 101.15 kPa, x1 = 0.7023	1.818
313.15 K, 101.15 kPa, x1 = 0.8066	1.585
313.15 K, 101.15 kPa, x1 = 0.9006	1.43
318.15 K, 101 kPa, x1 = 0.0997	1.548
318.15 K, 101 kPa, x1 = 0.1202	1.73
318.15 K, 101 kPa, x1 = 0.1503	2.039
318.15 K, 101 kPa, x1 = 0.1702	2.13
318.15 K, 101 kPa, x1 = 0.1999	2.32
318.15 K, 101 kPa, x1 = 0.2205	2.417
318.15 K, 101 kPa, x1 = 0.2496	2.527
318.15 K, 101 kPa, x1 = 0.2697	2.572
318.15 K, 101 kPa, x1 = 0.2937	2.603
318.15 K, 101 kPa, x1 = 0.3202	2.623
318.15 K, 101 kPa, x1 = 0.3496	2.589
318.15 K, 101 kPa, x1 = 0.3999	2.503
318.15 K, 101 kPa, x1 = 0.45	2.387
318.15 K, 101 kPa, x1 = 0.4999	2.245
318.15 K, 101 kPa, x1 = 0.6002	1.977
318.15 K, 101 kPa, x1 = 0.7997	1.571
318.15 K, 101 kPa, x1 = 0.9498	1.375
323.15 K, 101 kPa, x1 = 0.6997	1.485
323.15 K, 101.15 kPa, x1 = 0.0501	0.942
323.15 K, 101.15 kPa, x1 = 0.0701	1.106
323.15 K, 101.15 kPa, x1 = 0.2004	1.995
323.15 K, 101.15 kPa, x1 = 0.4012	2.116
323.15 K, 101.15 kPa, x1 = 0.503	1.935
323.15 K, 101.15 kPa, x1 = 0.7023	1.509
323.15 K, 101.15 kPa, x1 = 0.8066	1.343

Source: the CheMixHub viscosity set
